Eleven molecules from PubChem BioAssay (NCI) can be followed below.

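Dose response: 5 concentrations. Exposure: 48 h. Format: 96-well plates. Endpoint: linear interpolation; highest concentration if not reached. At the GI50, growth is halved. The concentration for full growth arrest is given as TGI.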

Test systems include HCC-2998 colon; HOP-62 NSCLC; MDA-MB-231 breast; MDA-MB-435; NCI-H460 lung; PC-3 prostate; RXF 393 renal; T-47D breast; M19-MEL melanoma.
What all share (assay): NCI tumour cell line growth inhibition, 48 h

On to `COc1cc(S(C)(=O)=O)ccc1Nc1nc2ccc(-c3ccc(NC(=O)[C@H](C)c4ccc(F)cc4)cc3)cn2n1`, for which the GI50 in the assay on HCC-2998 colon was over 100 µM; in the assay on HOP-62 NSCLC, over 100 µM; in the assay with MDA-MB-231 breast it was 26.6 µM; in the assay on MDA-MB-435, over 100 µM; with NCI-H460 lung, 0.0821 µM; in the assay with PC-3 prostate, 4.29 µM. For the same molecule, the GI50 in the assay with RXF 393 renal is over 48.5 µM; in the assay on T-47D breast it was 0.596 µM. For the same molecule, the TGI in the assay with HCC-2998 colon, with HOP-62 NSCLC, in the assay with MDA-MB-231 breast, in the assay with MDA-MB-435, with NCI-H460 lung and in the assay on PC-3 prostate was over 100 µM in each case. Also, the TGI in the assay with RXF 393 renal and in the assay on T-47D breast was over 100 µM each time.
For the molecule `CCC(c1cccc(O)c1)C(CC)c1cccc(O)c1` (centres undefined), the GI50 is 5.18 µM with HCC-2998 colon; 4.89 µM in the assay on HOP-62 NSCLC; 6.21 µM with MDA-MB-231 breast; 2.15 µM in the assay with MDA-MB-435; 2.98 µM with NCI-H460 lung; 2.28 µM with PC-3 prostate. For the same molecule, the GI50 with RXF 393 renal was 2.75 µM; in the assay on T-47D breast, 3.54 µM. For the same molecule, the TGI was found to be 18.3 µM with HCC-2998 colon; 17.4 µM in the assay on HOP-62 NSCLC; 19.6 µM with MDA-MB-231 breast; 6.44 µM in the assay on MDA-MB-435; 12.8 µM with NCI-H460 lung; 12.5 µM in the assay with PC-3 prostate. The TGI with RXF 393 renal is 10.6 µM; in the assay on T-47D breast it was 17.1 µM.
With `O=C1Nc2cccc3cc(NCC(O)CCl)cc1c23` (centres undefined), the TGI in the assay with HCC-2998 colon, in the assay with HOP-62 NSCLC, in the assay with MDA-MB-231 breast, in the assay with MDA-MB-435, with NCI-H460 lung and in the assay with PC-3 prostate was over 100 µM in each case. Besides, the TGI in the assay on RXF 393 renal and with T-47D breast was over 100 µM throughout.
On to `Cc1ccc(NC(=O)Cn2c(Br)nc3c2c(=O)n(C)c(=O)n3C)cc1`, for which the GI50 with HCC-2998 colon is 15.5 µM; in the assay with HOP-62 NSCLC, 2.83 µM; in the assay with MDA-MB-231 breast it was 2.44 µM; in the assay on MDA-MB-435, 9.32 µM; in the assay with NCI-H460 lung, 3.39 µM; with PC-3 prostate, 11.5 µM. Besides, the GI50 is 2.29 µM with RXF 393 renal and 3.05 µM in the assay on T-47D breast. The TGI in the assay on HCC-2998 colon is 28.9 µM; in the assay on HOP-62 NSCLC, 9.7 µM; with MDA-MB-231 breast it was 6.42 µM; with MDA-MB-435 it was 21.2 µM; in the assay with NCI-H460 lung it was 11.6 µM; in the assay with PC-3 prostate it was 24.1 µM. Besides, the TGI in the assay on RXF 393 renal turned out to be 6.28 µM; with T-47D breast it was 14 µM.
As to `Cn1cc(CNCC2CCN(c3ncc(C(=O)NO)cn3)CC2)c2ccccc21`, the GI50 in the assay with HCC-2998 colon was 0.0141 µM; in the assay with HOP-62 NSCLC, 0.0128 µM; in the assay on MDA-MB-231 breast, 0.04 µM; in the assay with MDA-MB-435, 0.012 µM; in the assay on NCI-H460 lung it was 0.0131 µM; in the assay on PC-3 prostate, 0.012 µM. The GI50 was under 0.0107 µM with RXF 393 renal and under 0.01 µM in the assay on T-47D breast. Besides, the TGI amounted to 0.0837 µM with HCC-2998 colon; 0.838 µM in the assay on HOP-62 NSCLC; 5.58 µM in the assay on MDA-MB-231 breast; 0.123 µM with MDA-MB-435; 11.5 µM in the assay with NCI-H460 lung; 18 µM in the assay with PC-3 prostate. Further, the TGI stood at 0.0385 µM in the assay on RXF 393 renal and 0.543 µM with T-47D breast.
In the case of `O=C1CC(=O)OC(c2ccc([N+](=O)[O-])cc2)O1`, the GI50 is 1.76 µM in the assay on HCC-2998 colon; 2.47 µM in the assay with HOP-62 NSCLC; 2.21 µM with MDA-MB-231 breast; 2.59 µM with MDA-MB-435; 2.4 µM in the assay on NCI-H460 lung; 2.36 µM with PC-3 prostate. Moreover, the GI50 was 1.77 µM in the assay with RXF 393 renal and 1.93 µM in the assay with T-47D breast. Also, the TGI was determined as 3.18 µM in the assay on HCC-2998 colon; 6.79 µM in the assay with HOP-62 NSCLC; 5.09 µM in the assay on MDA-MB-231 breast; 8.62 µM in the assay on MDA-MB-435; 5.9 µM in the assay on NCI-H460 lung; 6.43 µM with PC-3 prostate. Further, the figures for the TGI in the assay with RXF 393 renal and with T-47D breast were 3.23 µM and 4.1 µM, respectively.
Regarding `O=C1CCCN1CC#CCN1CCCC1`, the GI50 with HCC-2998 colon, with HOP-62 NSCLC, with MDA-MB-231 breast, in the assay with MDA-MB-435, with NCI-H460 lung and in the assay with PC-3 prostate was over 100 µM in each case. The GI50 in the assay on RXF 393 renal and with T-47D breast was over 100 µM each time. In addition, the TGI with HCC-2998 colon, in the assay with HOP-62 NSCLC, with MDA-MB-231 breast, with MDA-MB-435, with NCI-H460 lung and in the assay with PC-3 prostate was over 100 µM each time. In addition, the TGI with RXF 393 renal and in the assay on T-47D breast was over 100 µM throughout.
Take `CCN1CSC(=S)N(CC)C1`: the TGI with HCC-2998 colon is over 100 µM; with HOP-62 NSCLC, 71.1 µM; in the assay on MDA-MB-231 breast, 73.9 µM; in the assay with MDA-MB-435 it was over 100 µM; in the assay with NCI-H460 lung it was over 100 µM; in the assay with PC-3 prostate, over 100 µM. Besides, the TGI in the assay with RXF 393 renal and in the assay with T-47D breast was over 100 µM each time.
For `C/C(=N\NC(N)=S)c1nc2ccc(Cl)cc2[nH]1`, the GI50 was 4.1 µM in the assay on HCC-2998 colon; 2.7 µM in the assay on HOP-62 NSCLC; 3.53 µM with MDA-MB-231 breast; 2.95 µM in the assay on MDA-MB-435; 1.33 µM in the assay with NCI-H460 lung; 4.05 µM in the assay on PC-3 prostate. In addition, the results for the GI50 in the assay with RXF 393 renal and in the assay on T-47D breast were 4.59 µM and 4.48 µM, respectively. In addition, the TGI with HCC-2998 colon is 16.4 µM; with HOP-62 NSCLC, 11.9 µM; with MDA-MB-231 breast, 37.9 µM; in the assay with MDA-MB-435, 24.6 µM; with NCI-H460 lung it was 5.83 µM; in the assay with PC-3 prostate, 48.2 µM. Besides, the TGI in the assay with RXF 393 renal is 28.7 µM; with T-47D breast, over 50 µM.
Regarding `CC1CCN(CC(=O)N2c3ccccc3Sc3cc4ccccc4cc32)CC1`, the TGI in the assay with HCC-2998 colon, with HOP-62 NSCLC, with MDA-MB-231 breast, in the assay with MDA-MB-435, in the assay on NCI-H460 lung and in the assay with PC-3 prostate was over 100 µM in each case. Further, the TGI with RXF 393 renal and in the assay with T-47D breast was over 100 µM in each case.
Take `C[C-](O)O.O/C(=C\[C-](O)c1ccccc1)c1ccccc1.O/C(=C\[C-](O)c1ccccc1)c1ccccc1.[Nd+3]` (centres undefined): the GI50 is 2.17 µM in the assay with HCC-2998 colon, 3.1 µM in the assay on HOP-62 NSCLC, 12.2 µM in the assay on M19-MEL melanoma and 4.99 µM with NCI-H460 lung. The TGI with HCC-2998 colon came out at 20.2 µM; in the assay with HOP-62 NSCLC, 15.7 µM; with M19-MEL melanoma, 42.7 µM; with NCI-H460 lung, 71 µM.
